15 compounds from PubChem BioAssay (NCI) can be followed below.

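Results reflect a 48-hour exposure of cells in 96-well plates to compound at five concentrations. The concentration for 50% growth inhibition is given as GI50. The concentration for full growth arrest is given as TGI.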

Some test systems named below: HOP-62 NSCLC; IGROV1 ovarian; NCI/ADR-RES ovarian; PC-3 prostate; NCI-H226 lung; KM12 colon; SK-MEL-2 melanoma; MOLT-4 leukemia; SK-OV-3 ovarian.
What all share (assay): NCI tumour cell line growth inhibition, 48 h

With `O=C(O)CC1C(=O)OC2C3COC(=O)c4cc(O)c(O)c(O)c4-c4c(cc(O)c(O)c4O)C(=O)OC2C(OC(=O)c2cc(O)c(O)c4c2C1C(O)C(=O)O4)C(OC(=O)c1cc(O)c(O)c(O)c1)O3` (configuration not stated), the TGI in the assay on HOP-62 NSCLC was greater than 100 µM; with IGROV1 ovarian, greater than 100 µM; with NCI/ADR-RES ovarian it was 46.9 µM; in the assay on PC-3 prostate, greater than 100 µM; with NCI-H226 lung it was greater than 100 µM; in the assay with KM12 colon, 42.6 µM. Further, the TGI is greater than 100 µM in the assay with SK-MEL-2 melanoma, 95 µM with MOLT-4 leukemia and greater than 100 µM with SK-OV-3 ovarian.

`Cc1nn2c(=O)n(-c3cccc(-n4nnc5c(-c6ccccc6)c(C)nn5c4=O)c3C)nnc2c1-c1ccccc1`: the TGI is greater than 100 µM with HOP-62 NSCLC; greater than 100 µM in the assay on IGROV1 ovarian; greater than 100 µM in the assay with NCI-H226 lung; 17.5 µM in the assay with SK-MEL-2 melanoma; 50 µM in the assay with MOLT-4 leukemia; greater than 100 µM with SK-OV-3 ovarian.

For the compound `COC(=O)[C@H]1CC(=O)C=C2CCCC21` (some centres not stated), the TGI in the assay with HOP-62 NSCLC, with IGROV1 ovarian, in the assay with KM12 colon, with SK-MEL-2 melanoma, in the assay with MOLT-4 leukemia and with SK-OV-3 ovarian was greater than 100 µM in each case.

With `CN=c1ss/c(=N\C(=S)N(C)C)n1C1CCCCC1`, the TGI was greater than 100 µM in the assay with HOP-62 NSCLC; greater than 31.6 µM in the assay with IGROV1 ovarian; greater than 31.6 µM with NCI-H226 lung; greater than 31.6 µM in the assay with KM12 colon; greater than 31.6 µM in the assay on SK-MEL-2 melanoma; greater than 31.6 µM in the assay with MOLT-4 leukemia. Also, in the assay on SK-OV-3 ovarian, the TGI was greater than 31.6 µM.

Turning to `CC1=C(C(=O)Nc2cccc(C(F)(F)F)c2)C(c2ccccc2F)C(C(=O)Nc2cccc(C(F)(F)F)c2)=C(C)N1`, the TGI was 26.2 µM with HOP-62 NSCLC; 43.7 µM in the assay with IGROV1 ovarian; 18.4 µM with NCI-H226 lung; 14.8 µM with KM12 colon; 11 µM in the assay on SK-MEL-2 melanoma; 8.41 µM with MOLT-4 leukemia. Also, the TGI in the assay on SK-OV-3 ovarian is 25.9 µM.

For the compound `O=c1c2cc(Br)ccc2[nH]c(=S)n1-c1ccccc1`, the TGI with HOP-62 NSCLC, with IGROV1 ovarian, in the assay on NCI-H226 lung, in the assay on KM12 colon, in the assay on SK-MEL-2 melanoma and with SK-OV-3 ovarian was greater than 100 µM each time.

Regarding `Cc1ccc(NC(C(=O)c2ccccc2)c2ccccc2)cc1` (configuration not stated), the GI50 was 9.75 µM with HOP-62 NSCLC; 2.11 µM with IGROV1 ovarian; 18.8 µM in the assay on NCI/ADR-RES ovarian; 2.78 µM in the assay with PC-3 prostate; 18 µM in the assay with NCI-H226 lung; 2.59 µM in the assay on KM12 colon. The GI50 in the assay on MOLT-4 leukemia was 4.71 µM; in the assay with SK-OV-3 ovarian it was 15.8 µM. In addition, the TGI in the assay with HOP-62 NSCLC is 39.1 µM; with IGROV1 ovarian it was 22.6 µM; in the assay with NCI/ADR-RES ovarian, greater than 100 µM; in the assay with PC-3 prostate, 52.4 µM; in the assay on NCI-H226 lung, greater than 100 µM; in the assay on KM12 colon it was 13.4 µM. Besides, the TGI with MOLT-4 leukemia was greater than 100 µM; in the assay on SK-OV-3 ovarian, 58.2 µM.

`CC(C)(C)C1CCC(CI)(N=[N+]=[N-])CC1` (configuration not stated): the TGI in the assay with HOP-62 NSCLC, in the assay with IGROV1 ovarian, in the assay with NCI-H226 lung, in the assay with KM12 colon, with SK-MEL-2 melanoma and with MOLT-4 leukemia was greater than 100 µM each time. Moreover, the TGI with SK-OV-3 ovarian was greater than 100 µM.

For the compound `COc1cc(-c2nccc3[nH]c(-c4cccc5[nH]ccc45)nc23)cc(OC)c1OC`, the GI50 with IGROV1 ovarian is less than 0.01 µM; in the assay on NCI/ADR-RES ovarian it was less than 0.01 µM; with PC-3 prostate, less than 0.01 µM; in the assay with NCI-H226 lung it was 4.06 µM; with KM12 colon, less than 0.01 µM; in the assay on SK-MEL-2 melanoma it was less than 0.01 µM. Moreover, the GI50 in the assay on MOLT-4 leukemia and with SK-OV-3 ovarian was less than 0.01 µM in each case. Moreover, the TGI was found to be 23.2 µM in the assay with IGROV1 ovarian; 18.1 µM in the assay on NCI/ADR-RES ovarian; 15.7 µM with PC-3 prostate; 22.5 µM in the assay with NCI-H226 lung; 13.4 µM with KM12 colon; 23.5 µM in the assay on SK-MEL-2 melanoma. The TGI in the assay on MOLT-4 leukemia stood at 13.2 µM; in the assay on SK-OV-3 ovarian, 14.8 µM.

Consider `O=[N+]([O-])c1ccc(Oc2cccc(C(F)(F)F)c2)c([N+](=O)[O-])c1`, for which the GI50 with HOP-62 NSCLC was 4.01 µM; in the assay on IGROV1 ovarian it was 3.02 µM; in the assay with NCI/ADR-RES ovarian, 3.04 µM; in the assay on PC-3 prostate, 4.2 µM; with NCI-H226 lung, 2.11 µM; in the assay on KM12 colon, 2.52 µM. Also, the GI50 in the assay with SK-MEL-2 melanoma is 3.81 µM; in the assay on MOLT-4 leukemia it was 0.344 µM. For the same compound, the TGI with HOP-62 NSCLC was determined as 16.1 µM; with IGROV1 ovarian, 14.2 µM; in the assay on NCI/ADR-RES ovarian it was 12.1 µM; with PC-3 prostate, 16.4 µM; in the assay with NCI-H226 lung it was 5.92 µM; in the assay on KM12 colon, 6.73 µM. Besides, the TGI in the assay with SK-MEL-2 melanoma was 9.82 µM; in the assay with MOLT-4 leukemia, 2.92 µM.

Take `CC1(C)C(=O)CCC(=O)C(C)(C)C2=CC=C(O2)C(C)(C)C(=O)CCC(=O)C(C)(C)C2=CC=C1O2`: the TGI in the assay with HOP-62 NSCLC, in the assay with IGROV1 ovarian, in the assay on NCI-H226 lung, in the assay on KM12 colon, in the assay on SK-MEL-2 melanoma and in the assay on MOLT-4 leukemia was greater than 100 µM each time. The compound also yielded a TGI in the assay with SK-OV-3 ovarian greater than 100 µM.

For `CC(N)CN.CC(N)CN.[Cl-].[O]=[Os+2]=[O]` (configuration not stated), the GI50 with IGROV1 ovarian, in the assay on NCI-H226 lung, with KM12 colon and in the assay with SK-MEL-2 melanoma was greater than 100 µM throughout. Also, the TGI with IGROV1 ovarian, in the assay with NCI-H226 lung, with KM12 colon and in the assay on SK-MEL-2 melanoma was greater than 100 µM in each case.

Take `COc1ccc(/C=c2\sc3nnc(CCC(=O)Nc4cccc(C(F)(F)F)c4)n3c2=O)cc1`: the TGI in the assay on HOP-62 NSCLC is greater than 100 µM; in the assay on IGROV1 ovarian, greater than 100 µM; in the assay on NCI-H226 lung, greater than 100 µM; in the assay with KM12 colon, greater than 100 µM; with SK-MEL-2 melanoma, greater than 100 µM; in the assay with MOLT-4 leukemia it was greater than 27.4 µM. The same compound gave a TGI in the assay with SK-OV-3 ovarian greater than 100 µM.

For the compound `COC(=O)CSc1n[nH]c(-c2ccccc2)n1`, the TGI in the assay on HOP-62 NSCLC was greater than 100 µM; with IGROV1 ovarian, greater than 100 µM; with NCI-H226 lung it was greater than 100 µM; in the assay on KM12 colon it was greater than 100 µM; in the assay on SK-MEL-2 melanoma, greater than 100 µM; in the assay with MOLT-4 leukemia, 43.2 µM. The compound also showed a TGI in the assay with SK-OV-3 ovarian greater than 100 µM.

`CN(C)CCCNC(=O)c1cccc2nc3ccccc3nc12`: the TGI with HOP-62 NSCLC is 45.5 µM; in the assay with IGROV1 ovarian it was greater than 82.2 µM; in the assay with NCI-H226 lung, 39.1 µM; in the assay on KM12 colon, 49.9 µM; with SK-MEL-2 melanoma, 29 µM; with MOLT-4 leukemia it was greater than 100 µM. The compound also registered a TGI in the assay on SK-OV-3 ovarian greater than 100 µM.
